According to patent US20260262643A1, “HERBICIDAL BENZOXAZINES” (FMC CORPORATION, priority 2022, published 2026):

Experiments:
[1] = system: ryegrass, Italian; assay: Test C postemergence; type: in vivo, Lolium multiflorum; conditions: 10 days, 0 to 100 scale (0 no effect, 100 complete control)
How it was run: (§1)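 Visual injury ratings on a 0–100 scale (100 = complete control) were made against untreated controls 10 days after treatment in the greenhouse. Compounds, formulated with surfactant in non-phytotoxic solvent, were sprayed on soil preemergence or onto one- to two-leaf plants 2–10 cm tall postemergence.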

[2] = system: barnyardgrass; assay: Test C postemergence; type: in vivo, Echinochloa crusgalli; conditions: 10 days, 0 to 100 scale (0 no effect, 100 complete control)
How it was run: as §1

[3] = system: wheat; assay: Test C postemergence; type: in vivo, Triticum aestivum; conditions: 10 days, 0 to 100 scale (0 no effect, 100 complete control)
How it was run: as §1

[4] = system: horseweed; assay: Test C postemergence; type: in vivo, Erigeron canadensis; conditions: 10 days, 0 to 100 scale (0 no effect, 100 complete control)
How it was run: as §1

[5] = system: kochia; assay: Test C preemergence; type: in vivo, Bassia scoparia
How it was run: as §1

[6] = system: oat, wild; assay: Test C preemergence; type: in vivo, Avena fatua
How it was run: as §1

[7] = system: corn; assay: Test C postemergence; type: in vivo, Zea mays; conditions: 10 days, 0 to 100 scale (0 no effect, 100 complete control)
How it was run: as §1

[8] = system: soybean; assay: Test C postemergence; type: in vivo, Glycine max; conditions: 10 days, 0 to 100 scale (0 no effect, 100 complete control)
How it was run: as §1

[9] = system: ducksalad; assay: Test D flooded paddy test; type: in vivo, Heteranthera limosa; conditions: 250 g ai/ha, applied to paddy water, visual rating after 13 to 14 days, scale 0 to 100 (0 no effect, 100 complete control)
How it was run: (§2)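 Visual ratings from 0, meaning no effect, to 100, meaning complete control, were assigned against untreated controls 13 to 14 days after compounds were added to the floodwater of pots kept 3 cm deep, with plants at the 2-leaf stage.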

[10] = system: barnyardgrass; assay: Test D flooded paddy test; type: in vivo, Echinochloa crus-galli; conditions: 250 g ai/ha, applied to paddy water, visual rating after 13 to 14 days, scale 0 to 100 (0 no effect, 100 complete control)
How it was run: as §2

[11] = system: oat, wild; assay: Test C postemergence; type: in vivo, Avena fatua; conditions: 10 days, 0 to 100 scale (0 no effect, 100 complete control)
How it was run: as §1

[12] = system: wheat; assay: Test C preemergence; type: in vivo, Triticum aestivum
How it was run: as §1

[13] = system: pigweed, palmer; assay: Test C preemergence; type: in vivo, Amaranthus palmeri
How it was run: as §1

[14] = system: galium; assay: Test C postemergence; type: in vivo, Galium aparine; conditions: 10 days, 0 to 100 scale (0 no effect, 100 complete control)
How it was run: as §1

[15] = system: ragweed; assay: Test C preemergence; type: in vivo, Ambrosia artemisiifolia
How it was run: as §1

[16] = system: blackgrass; assay: Test C postemergence; type: in vivo, Alopecurus myosuroides; conditions: 10 days, 0 to 100 scale (0 no effect, 100 complete control)
How it was run: as §1

[17] = system: blackgrass; assay: Test C preemergence; type: in vivo, Alopecurus myosuroides
How it was run: as §1

[18] = system: rice; assay: Test D flooded paddy test; type: in vivo, Oryza sativa; conditions: 250 g ai/ha, applied to paddy water, visual rating after 13 to 14 days, scale 0 to 100 (0 no effect, 100 complete control)
How it was run: as §2

[19] = system: ragweed; assay: Test C postemergence; type: in vivo, Ambrosia artemisiifolia; conditions: 10 days, 0 to 100 scale (0 no effect, 100 complete control)
How it was run: as §1

[20] = system: soybean; assay: Test C preemergence; type: in vivo, Glycine max
How it was run: as §1

[21] = system: barnyardgrass; assay: Test C preemergence; type: in vivo, Echinochloa crusgalli
How it was run: as §1

[22] = system: foxtail, giant; assay: Test C postemergence; type: in vivo, Setaria faberi; conditions: 10 days, 0 to 100 scale (0 no effect, 100 complete control)
How it was run: as §1

[23] = system: ryegrass, Italian; assay: Test C preemergence; type: in vivo, Lolium multiflorum
How it was run: as §1

[24] = system: pigweed, palmer; assay: Test C postemergence; type: in vivo, Amaranthus palmeri; conditions: 10 days, 0 to 100 scale (0 no effect, 100 complete control)
How it was run: as §1

[25] = system: corn; assay: Test C preemergence; type: in vivo, Zea mays
How it was run: as §1

[26] = system: kochia; assay: Test C postemergence; type: in vivo, Bassia scoparia; conditions: 10 days, 0 to 100 scale (0 no effect, 100 complete control)
How it was run: as §1

[27] = system: sedge, umbrella; assay: Test D flooded paddy test; type: in vivo, Cyperus difformis; conditions: 250 g ai/ha, applied to paddy water, visual rating after 13 to 14 days, scale 0 to 100 (0 no effect, 100 complete control)
How it was run: as §2

[28] = system: foxtail, giant; assay: Test C preemergence; type: in vivo, Setaria faberi
How it was run: as §1

[29] = 500 g ai/ha, preemergence, 0 to 100 scale (0 no effect, 100 complete control)
[30] = Preemergence, 125 g ai/ha, 0 to 100 scale, 0 no effect, 100 complete control

Which “Plant response rating, Ryegrass, Italian” value ([1]; 500 g ai/ha, postemergence) does the source give for `Cc1cccc2c1OC(C(F)(F)F)CN2C(=O)c1ccnc(-n2cnc(C(C)(C)C)n2)c1` (stereo not shown) [Compound 319] here?
The value was 50.

What about the “Plant response rating, Ryegrass, Italian” value ([1]; Postemergence, 125 g ai/ha) of the same compound?
The value was 30.

What about the “Plant response rating, Barnyardgrass” value ([2]; 500 g ai/ha, postemergence) of the same compound?
The value was 60.

And the “Plant response rating, Barnyardgrass” value ([2]; Postemergence, 125 g ai/ha)?
Its value is 10.

And the “Plant response rating, Wheat” value ([3]; 500 g ai/ha, postemergence)?
Its value is 10.

And the “Plant response rating, Wheat” value ([3]; Postemergence, 125 g ai/ha)?
The value was 10.

What about the “Plant response rating, Horseweed” value ([4]; 500 g ai/ha, postemergence) of the same compound?
Its value is 30.

And the “Plant response rating, Horseweed” value ([4]; Postemergence, 125 g ai/ha)?
The value was 0.

What about the “Kochia plant response rating” value [5, 29] of the same compound?
Its value is 0.

And the “Plant response rating, Kochia” value [5, 30]?
Its value is 0.

What about the “Oat, Wild plant response rating” value [6, 29] of the same compound?
The value was 40.

And the “Plant response rating, Oat, Wild” value [6, 30]?
Its value is 20.

What about the “Plant response rating, Corn” value ([7]; 500 g ai/ha, postemergence) of the same compound?
Its value is 50.

And the “Plant response rating, Corn” value ([7]; Postemergence, 125 g ai/ha)?
Its value is 20.

What about the “Plant response rating, Soybean” value ([8]; 500 g ai/ha, postemergence) of the same compound?
The value was 100.

And the “Plant response rating, Soybean” value ([8]; Postemergence, 125 g ai/ha)?
The value was 100.

What about the “Plant response rating, Ducksalad (Flood)” value [9] of the same compound?
The value was 0.

And the “Plant response rating, Barnyardgrass (Flood)” value [10]?
The value was 0.

And the “Plant response rating, Oat, Wild” value ([11]; 500 g ai/ha, postemergence)?
The value was 30.

What about the “Plant response rating, Oat, Wild” value ([11]; Postemergence, 125 g ai/ha) of the same compound?
The value was 0.

What about the “Wheat plant response rating” value [12, 29] of the same compound?
Its value is 30.

And the “Plant response rating, Wheat” value [12, 30]?
Its value is 0.

And the “Pigweed, Palmer plant response rating” value [13, 29]?
Its value is 90.

What about the “Plant response rating, Pigweed, Palmer” value [13, 30] of the same compound?
Its value is 80.

And the “Plant response rating, Galium” value ([14]; 500 g ai/ha, postemergence)?
Its value is 70.

What about the “Plant response rating, Galium” value ([14]; Postemergence, 125 g ai/ha) of the same compound?
The value was 60.

What about the “Ragweed plant response rating” value [15, 29] of the same compound?
Its value is 0.

What about the “Plant response rating, Ragweed” value [15, 30] of the same compound?
The value was 0.

And the “Plant response rating, Blackgrass” value ([16]; 500 g ai/ha, postemergence)?
Its value is 80.

What about the “Plant response rating, Blackgrass” value ([16]; Postemergence, 125 g ai/ha) of the same compound?
The value was 10.

What about the “Blackgrass plant response rating” value [17, 29] of the same compound?
Its value is 70.

And the “Plant response rating, Blackgrass” value [17, 30]?
Its value is 50.

What about the “Plant response rating, Rice (Flood)” value [18] of the same compound?
The value was 0.

And the “Plant response rating, Ragweed” value ([19]; 500 g ai/ha, postemergence)?
The value was 70.

What about the “Plant response rating, Ragweed” value ([19]; Postemergence, 125 g ai/ha) of the same compound?
The value was 0.

And the “Soybean plant response rating” value [20, 29]?
The value was 100.

What about the “Plant response rating, Soybean” value [20, 30] of the same compound?
Its value is 20.

And the “Barnyardgrass plant response rating” value [21, 29]?
The value was 90.

What about the “Plant response rating, Barnyardgrass” value [21, 30] of the same compound?
The value was 40.

What about the “Plant response rating, Foxtail, Giant” value ([22]; 500 g ai/ha, postemergence) of the same compound?
Its value is 80.

What about the “Plant response rating, Foxtail, Giant” value ([22]; Postemergence, 125 g ai/ha) of the same compound?
The value was 30.

What about the “Ryegrass, Italian plant response rating” value [23, 29] of the same compound?
Its value is 100.

What about the “Plant response rating, Ryegrass, Italian” value [23, 30] of the same compound?
The value was 100.

What about the “Plant response rating, Pigweed, Palmer” value ([24]; 500 g ai/ha, postemergence) of the same compound?
The value was 80.

And the “Plant response rating, Pigweed, Palmer” value ([24]; Postemergence, 125 g ai/ha)?
Its value is 30.

And the “Corn plant response rating” value [25, 29]?
The value was 20.

And the “Plant response rating, Corn” value [25, 30]?
Its value is 0.

And the “Plant response rating, Kochia” value ([26]; 500 g ai/ha, postemergence)?
The value was 90.

And the “Plant response rating, Kochia” value ([26]; Postemergence, 125 g ai/ha)?
The value was 40.

And the “Plant response rating, Sedge, Umbrella (Flood)” value [27]?
The value was 0.

And the “Foxtail, Giant plant response rating” value [28, 29]?
Its value is 100.

And the “Plant response rating, Foxtail, Giant” value [28, 30]?
Its value is 100.
